Test results published in US7229984B2, “Dibenzoxazepinone derivatives and uses thereof” (Roche Palo Alto LLC, priority 2004, dated 2007).
Counter-ions that a name gives are not always drawn.

What was measured:
[1] = molecular target: T1, recombinant human 5-HT2A receptor (Homo sapiens, UniProt P28223); test: Radioligand binding, [3H]Ketanserin competition in CHO-K1 cell membranes; details: [3H]Ketanserin displacement, pH 7.4, 32° C., approximate value, read-out: pKi for 5-HT2A (converted)
T1 construct: expressed in transfected cells; membranes
T1 sequence (P28223 whole entry): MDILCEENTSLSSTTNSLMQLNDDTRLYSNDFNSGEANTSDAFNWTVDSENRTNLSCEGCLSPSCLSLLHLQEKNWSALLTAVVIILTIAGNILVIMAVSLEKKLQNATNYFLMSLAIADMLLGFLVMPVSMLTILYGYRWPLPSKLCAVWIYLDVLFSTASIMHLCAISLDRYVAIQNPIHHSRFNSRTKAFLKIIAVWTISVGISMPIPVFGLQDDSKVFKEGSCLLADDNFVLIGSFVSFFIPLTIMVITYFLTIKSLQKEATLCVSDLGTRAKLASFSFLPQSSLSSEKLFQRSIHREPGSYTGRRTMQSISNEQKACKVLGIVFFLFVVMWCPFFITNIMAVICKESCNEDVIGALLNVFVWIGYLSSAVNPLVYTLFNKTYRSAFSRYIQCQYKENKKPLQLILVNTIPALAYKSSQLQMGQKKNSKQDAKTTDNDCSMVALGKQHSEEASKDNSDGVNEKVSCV
Experimental: (§1) The binding activity of compounds of this invention in vitro was determined as follows. Duplicate determinations of 5-HT6 ligand affinity were made by competing for binding of [^3H]LSD in cell membranes derived from HEK293 cells stably expressing recombinant human 5-HT6 receptor. Duplicate determinations of 5-HT2A ligand affinity were made by competing for binding of [^3H]Ketanserin (3-(2-(4-(4-fluorobenzoyl)piperidinol)ethyl)-2,4(1H,3H)-quinazolinedione) in cell membranes derived from CHO-K1 cells stably expressing recombinant human 5-HT2A receptor. Membranes were prepared from HEK 293 cell lines by the method described by Monsma et al., Molecular Pharmacology, Vol. 43 pp. 320–327 (1993), and from CHO-K1cell lines as described by Bonhaus et al., Br J Pharmacol. Jun; 115(4):622–8 (1995).
(§2) For estimation of affinity at the 5-HT6 receptor, all determinations were made in assay buffer containing 50 mM Tris-HCl, 10 mM MgSO4, 0.5 mM EDTA, 1 mM ascorbic acid, pH 7.4 at 37° C., in a 250 microliter reaction volume. […]
(§3) Assay tubes containing [^3H] […] Bound[^3H]LSD or [^3H]Ketanserin were determined as radioactive counts per minute using Packard TopCount.
(§4) Displacement of [^3H]LSD or [^3H]Ketanserin from the binding sites was quantified by fitting concentration-binding data to a 4-parameter logistic equation: […]

[2] = molecular target: T2, recombinant human 5-HT6 receptor (Homo sapiens, UniProt P50406); test: Radioligand binding, [3H]LSD competition in HEK293 cell membranes; details: [3H]LSD displacement, pH 7.4, 37° C., approximate value, read-out: pKi for 5-HT6 (converted)
T2 construct: expressed in transfected cells; membranes
T2 sequence (P50406 whole entry): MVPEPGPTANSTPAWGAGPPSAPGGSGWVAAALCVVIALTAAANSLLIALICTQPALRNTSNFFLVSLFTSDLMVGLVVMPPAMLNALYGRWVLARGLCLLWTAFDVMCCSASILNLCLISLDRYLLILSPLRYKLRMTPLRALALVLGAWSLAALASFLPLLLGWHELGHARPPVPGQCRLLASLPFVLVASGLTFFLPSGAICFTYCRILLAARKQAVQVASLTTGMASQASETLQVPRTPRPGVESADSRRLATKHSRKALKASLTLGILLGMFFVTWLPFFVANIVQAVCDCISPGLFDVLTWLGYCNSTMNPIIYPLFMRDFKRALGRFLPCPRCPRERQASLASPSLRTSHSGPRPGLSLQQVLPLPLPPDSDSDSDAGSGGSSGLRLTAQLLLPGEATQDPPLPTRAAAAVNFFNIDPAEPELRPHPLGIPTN
Experimental: as §1, §2, §3, §4

Row | SMILES | melting point | also measured
1 | O=C1c2cccc(N3CCNCC3)c2Oc2ccccc2N1Cc1ccccc1 (as salt: HCl) [Compound 1, 10-Benzyl-4-piperazin-1-yl-10H-dibenzo[b,f][1,4]oxazepin-11-one] | 198 to 199 °C | 
2 | O=C1c2cccc(N3CCNCC3)c2Nc2ccccc2N1Cc1ccccc1 (as salt: HCl) [Compound 13, 10-Benzyl-4-piperazin-1-yl-5,10-dihydro-dibenzo[b,e][1,4]diazepin-11-one] | 322 to 323 °C (dec.) | 
3 | O=C1c2cccc(N3CCNCC3)c2Sc2ccccc2N1Cc1ccccc1 (as salt: HCl) [Compound 20, 10-Benzyl-4-piperazin-1-yl-10H-dibenzo[b,f][1,4]thiazepin-11-one] | 301 to 302 °C | 
4 | O=C1c2cccc(N3CCNCC3)c2Oc2c(F)cccc2N1CCc1ccccc1 [Compound 26, 6-Fluoro-10-phenethyl-4-piperazin-1-yl-10H-dibenzo[b,f][1,4]oxazepin-11-one,hydrochloride] |  | Ki [1]: ~1320 pM
5 | O=C1c2cccc(N3CCNCC3)c2Oc2ccc(F)cc2N1Cc1cccc(C(F)(F)F)c1 [Compound 28, 8-Fluoro-4-piperazin-1-yl-10-(3-trifluoromethyl-benzyl)-10H-dibenzo[b,f][1,4]oxazepin-11-one] |  | Ki [2]: ~282 pM
6 | O=C1c2cccc(N3CCNCC3)c2Oc2ccccc2N1Cc1c[nH]c2ccccc12 [Compound 37, 10-(1H-Indol-3-ylmethyl)-4-piperazin-1-yl-10H-dibenzo[b,f][1,4]oxazepin-11-one] | 98 to 99 °C | 
